The values below are quoted from earlier work in patent US7323174B1, “Modulation of immune response and methods based thereon” (Arizona Board of Regents on behalf of The University of …, priority 2000, dated 2008).

No end group written: not given here.

For series [1], the system named is Th1 and Th2 cytokine production. The settings on record: individuals infected with an immunodeficiency-type retrovirus; described in U.S. Pat. No. 5,911,990.
Series [2] has as its system immunodeficiency-type retrovirus. The settings on record: individuals infected with an immunodeficiency-type retrovirus; described in U.S. Pat. No. 5,911,990.

Regarding CKPISGHNSLFWYRQT [SEQ ID NO:1], in series [1], the “aberrant Th1 and Th2 cytokine production” value is “normalize aberrant Th1 and Th2 cytokine production”. The “progression to AIDS” value in series [2] is on record as “suppress progression to AIDS”.
